Earlier results on 65 compounds are cited in the CATMoS acute toxicity set (Mansouri et al. 2021).

Usually LD50 stands for the dose expected to kill half of the subjects tested.

“And” between values parts separate entries of the source, which are not always exact repeats. Identical values can stand only once.

The data set can be described thus: rat acute oral toxicity. The note with it: in vivo.
For the compound `CC/C=C\CC=O`, the LD50 was 1560 mg/kg.

Turning to `CN(C)C(=O)C(CCN1CCC(O)(c2ccc(Cl)c(C(F)(F)F)c2)CC1)(c1ccccc1)c1ccccc1`, the LD50 was 86 mg/kg.

Take `CC(O)COC[C@H]1O[C@@H](O)[C@H](OCC(C)O)[C@@H](OCC(C)O)[C@@H]1O` (stereo not given in full): the LD50 was 10200 mg/kg.

On to `CC(Cc1ccccc1)NCCCCl` (stereo not given), for which the LD50 was 410 mg/kg.

`CC(C)c1cc(Oc2c(I)cc(CC(=O)O)cc2I)ccc1O`: the median lethal dose (LD50) is 5.4 mg/kg.

Regarding `COc1ccc(N)cc1OC`, the LD50 is 681 mg/kg.

With `CC(C)OC(=O)COc1cc(Cl)c(Cl)cc1Cl`, the LD50 is 495 mg/kg.

`O=NN(CCCl)C(=O)NCCS(=O)(=O)N1CCCCC1`: the LD50 is 125 mg/kg.

For `CCCCC1C(=O)N(c2ccccc2)N(c2ccc(O)cc2)C1=O` (stereo not given), the LD50 was 329 mg/kg.

Turning to `CCCOc1ccc(C(CN(C)C)C(C)CC)cc1Cl` (stereo not given), the LD50 is 741 mg/kg.

Consider `CCOC(=O)CC`, for which the LD50 is 8730 mg/kg.

`O=C(NC(CCc1ccc2c(c1)OCO2)CCc1ccc2c(c1)OCO2)c1ccc(Cl)cc1`: the LD50 was 1800 mg/kg.

Consider `Cc1c(Cl)c(=O)oc2cc(OP(=O)(OCCCl)OCCCl)ccc12`, for which the LD50 was 900 mg/kg.

As for `Nc1ccc(I)cc1`, the LD50 was 523 mg/kg.

Turning to `CCN1C[C@H]2CN(C)C[C@@H](C1)C2OC(=O)c1ccc(Cl)cc1` (stereo not given in full), the LD50 is 383 mg/kg.

Take `O=S(=O)(C(Cl)CCl)C(Cl)CCl` (stereo not given): the LD50 is 250 mg/kg.

Turning to `CCOc1ccc(C2(c3ccc(OCC)cc3)CC2(Cl)Cl)cc1`, the LD50 is 755 mg/kg.

`N[C@@H]1C[C@H]1c1ccc(F)c(F)c1`: the LD50 is 50 mg/kg.

Turning to `ClCc1cccc2ccccc12`, the LD50 is 890 mg/kg.

Regarding `CC(C)NCC(O)COc1cccc2c1OCC(O)C2` (stereo not given), the LD50 is 1840 mg/kg.

With `Cc1cc(OCCO)cc(C)c1Cl`, the LD50 was 3800 mg/kg.

`COS(C)(=O)=O`: the LD50 was 225 mg/kg.

As for `COC(=O)C(=O)c1ccccc1`, the LD50 is 6800 mg/kg.

For `O=S(=O)(O)c1c(Cl)c(Cl)c(Cl)c2[nH]c(C(F)(F)F)nc12`, the LD50 is 218 mg/kg.

Take `CCOC(=O)C(C)(C)Oc1ccc(Cl)cc1`: the LD50 is 940 mg/kg.

As for `CCO[Si](C)(C)c1ccccc1`, the LD50 is 2460 mg/kg.

For `COC1(C)CC(c2ccccc2)c2c(c3ccccc3oc2=O)O1` (stereo not given), the LD50 was 4000 mg/kg.

As to `O=C1NN=C(c2ccccc2)CO1`, the LD50 is 441 mg/kg.

For the compound `CCCCN(CCO)CCO`, the LD50 is 4250 mg/kg.

In the case of `CCN(CC)CCCN(c1ccccc1)C1Cc2ccccc2C1`, the LD50 is 525 mg/kg.

In the case of `CCCOC(=O)c1c[n+](C)c2n(c1=O)C(C)CCC2` (stereo not given), the LD50 was 1810 mg/kg.

Turning to `O=c1oc2cc(Cl)ccc2n1CCl`, the LD50 is 2350 mg/kg.

As to `COC(=O)C(c1ccccc1Cl)N1CCc2sccc2C1` (stereo not given), the LD50 was 1910 mg/kg.

On to `CC(C)c1ccc2ccccc2c1C(C)C`, for which the LD50 is 15200 mg/kg.

Regarding `CCCSP(=O)(OCC)Oc1ccc(Sc2ccc(Cl)cc2)cc1` (stereo not given), the LD50 was 690 mg/kg.

For `C=CCC(N)Cc1ccccc1` (stereo not given), the LD50 was 680 mg/kg.

For `C=C(C)C(=O)CC`, the LD50 is 419 mg/kg.

Turning to `CC(C)(OOC(C)(C)c1ccccc1)c1ccccc1`, the LD50 was 4100 mg/kg.

For `CCCCC1OC(=O)c2ccccc21` (stereo not given), the LD50 was 2450 mg/kg.

On to `C=C(C)C(=O)OCCSCCCC`, for which the LD50 is 5300 mg/kg.

For `C1C[C@H]2C[C@@H]1[C@H]1SSS[C@@H]21`, the LD50 was 300 mg/kg.

As for `CC(=O)Nc1cccc2c3c([nH]c12)CCCC3`, the LD50 was 3860 mg/kg.

With `CC1=CC(=O)C(C(C)C)CC1` (stereo not given), the 50% lethal dose (LD50) is 2450 mg/kg.

On to `COP(=S)(OC)Oc1ccc(SC)c(C)c1`, for which the LD50 was 180 mg/kg.

Take `O=C(O)[C@H]1/C(=C/CO)O[C@@H]2CC(=O)N21`: the LD50 is 7940 mg/kg.

`O=C1OCC2C1C1(Cl)C(Cl)=C(Cl)C2(Cl)C1(Cl)Cl` (stereo not given): the LD50 was 105 mg/kg.

`ClCCCCCCCCC(Cl)(Cl)Cl`: the LD50 was 370 mg/kg.

Turning to `CN(CO)C(=O)Oc1cccc2ccccc12`, the LD50 is 5360 mg/kg.

Take `CCCCCCCCCN(CCCCCCCCC)CCCCCCCCC`: the LD50 was 5600 mg/kg.

On to `CCN(CC)C(=O)Nc1ccc(OCC(O)CNC(C)(C)C)c(C(C)=O)c1` (stereo not given), for which the LD50 was 2160 mg/kg.

Consider `O=C(O)CCCN1C(=O)c2cccc3cccc(c23)C1=O`, for which the LD50 is 4000 mg/kg.

With `O=C(O)c1cccc2c(Cl)ccc(C(=O)O)c12`, the LD50 is 3500 mg/kg.

Turning to `C[n+]1cc2c3c(ccc2c2ccc4cc5c(cc4c21)OCO5)OCO3`, the LD50 is 1660 mg/kg.

With `CCN(CCC#N)c1ccc(N=Nc2nc3ccc(S(C)(=O)=O)cc3s2)c(C)c1`, the LD50 was 400 mg/kg.

Take `C=C(C)C(=O)OCC(C)O` (stereo not given): the 50% lethal dose (LD50) is 11200 mg/kg.

As to `O=C(C(F)(F)F)C(F)(F)F`, the LD50 was 190 mg/kg and 191 mg/kg.

With `N=C(N)SCc1ccccc1`, the LD50 was 27 mg/kg.

Take `CCN(CC)c1ccc(N=Nc2ccc(S(=O)(=O)N(C)C)cc2)c(S(=O)(=O)NCC[n+]2ccccc2)c1`: the LD50 was 5120 mg/kg.

Turning to `CC1(S(=O)(=O)O)CC(=O)c2ccccc2C1=O` (stereo not given), the LD50 is 4510 mg/kg.

Regarding `CCCCOC(=S)S`, the LD50 was 456 mg/kg.

For `CCCCCCOCCCCCC`, the LD50 is 30900 mg/kg.

As for `OCC(O)C1CC=CCC1` (stereo not given), the LD50 is 1070 mg/kg.

Take `O=c1[nH]sc2ccccc12`: the LD50 was 1020 mg/kg.

With `FC(F)=C(F)c1ccccc1`, the LD50 is 2500 mg/kg.

As to `CCC(C)(C)c1ccc2c(c1)C(=O)c1ccccc1C2=O`, the LD50 was 1600 mg/kg.
